Each structure is given as a SMILES string.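 Each compound was tested at five concentrations against cells in 96-well plates for 48 hours. Here, GI50 denotes the concentration required for 50% inhibition of growth.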 Calls of active or inactive are those of the source. Cut-off read from the data, not from the text of the source: active = GI50 up to about 1.1 µM and inactive = higher.

Test systems include RXF 393; HOP-92; NCI-H460; NCI-H226; SF-295; SN12C; HCC 2998; Hs-578T; PC-3; OVCAR-8; SK-OV-3; SK-MEL-28; SR; LOX IMVI; UACC-62; NCI-H522; MDA-N; 786-0; BT-549; SW-620.
Assay in all cases: inhibition of tumour cell growth, NCI panel, 48 h

Take `COC(=O)c1c(C)nc(C)c(N=O)c1-c1ccccc1C(F)(F)F`: the GI50 with RXF 393 was 15.3 µM (inactive); with HOP-92, 17.3 µM (inactive); with NCI-H460, 80.4 µM (inactive); in the assay with NCI-H226 it was 19.4 µM (inactive); with SF-295, > 100 µM (inactive); with SN12C, 21.3 µM (inactive). Besides, the GI50 in the assay on HCC 2998 is 79.6 µM (inactive); in the assay on Hs-578T, 19 µM (inactive); in the assay on PC-3, 34.2 µM (inactive); with OVCAR-8 it was 17.9 µM (inactive); in the assay with SK-OV-3, > 100 µM (inactive); in the assay on SK-MEL-28, 14.9 µM (inactive). Further, the GI50 in the assay on SR was 13.7 µM (inactive); with LOX IMVI, 14.7 µM (inactive); in the assay on UACC-62, 27.6 µM (inactive); in the assay on NCI-H522 it was 4.97 µM (inactive); with MDA-N, 19.7 µM (inactive); in the assay with 786-0, 17.6 µM (inactive). In addition, the GI50 was 18.5 µM (inactive) in the assay on BT-549 and 15.5 µM (inactive) with SW-620.
With `CCOc1ccccc1/N=N/C1C(=O)N(C(=O)CC(=O)Nc2ccccc2Cl)N=C1C` (stereo not given), the GI50 in the assay on RXF 393 is > 100 µM (inactive); in the assay on HOP-92 it was 20.3 µM (inactive); in the assay on NCI-H460, 40.2 µM (inactive); in the assay with NCI-H226, > 100 µM (inactive); with SF-295, 37.6 µM (inactive); in the assay with SN12C it was > 100 µM (inactive). Moreover, the GI50 is > 100 µM (inactive) in the assay on HCC 2998; 22.4 µM (inactive) in the assay with Hs-578T; 94.4 µM (inactive) in the assay with PC-3; 88.3 µM (inactive) with OVCAR-8; 26.9 µM (inactive) with SK-OV-3; > 100 µM (inactive) with SK-MEL-28. Further, the GI50 was 78.7 µM (inactive) in the assay on SR; 43.7 µM (inactive) in the assay with LOX IMVI; 56 µM (inactive) with UACC-62; > 100 µM (inactive) with NCI-H522; > 100 µM (inactive) in the assay on MDA-N; > 100 µM (inactive) in the assay on 786-0. In addition, the GI50 in the assay on BT-549 is 78.7 µM (inactive); with SW-620, > 100 µM (inactive).
Turning to `CN1CC[C@]2(c3cccc(O)c3)CC(=O)/C(=C/c3ccccc3)[C@@H]1C2.[O-][Cl+3]([O-])([O-])O`, the GI50 in the assay with RXF 393 is 1.49 µM (inactive); in the assay with HOP-92, 2.09 µM (inactive); in the assay on NCI-H460 it was 2.17 µM (inactive); with NCI-H226 it was 15 µM (inactive); with SF-295 it was 3.24 µM (inactive); with SN12C, 2.99 µM (inactive). Moreover, the GI50 was 2.59 µM (inactive) in the assay on HCC 2998; 4.62 µM (inactive) with Hs-578T; 1.76 µM (inactive) with PC-3; 3.03 µM (inactive) in the assay on OVCAR-8; 3.06 µM (inactive) with SK-MEL-28; 2.41 µM (inactive) with SR. For the same compound, the GI50 in the assay on LOX IMVI is 1.94 µM (inactive); with NCI-H522, 2.74 µM (inactive); with MDA-N, 1.58 µM (inactive); with 786-0, 2.44 µM (inactive); with BT-549, 2.44 µM (inactive); with SW-620, 2.23 µM (inactive).
Regarding `S=C(Nc1ccc(Cl)cc1)SC1CCCCC1`, the GI50 is 25.1 µM (inactive) in the assay with RXF 393; 23.5 µM (inactive) with HOP-92; 28.4 µM (inactive) with NCI-H460; 72.4 µM (inactive) with NCI-H226; 19.1 µM (inactive) in the assay on SF-295; 19.2 µM (inactive) with SN12C. Besides, the GI50 with HCC 2998 is 19.2 µM (inactive); with Hs-578T, 31.8 µM (inactive); in the assay with PC-3, 35.7 µM (inactive); in the assay with OVCAR-8, 31.5 µM (inactive); with SK-OV-3, 27.8 µM (inactive); with SK-MEL-28, 17.3 µM (inactive). Further, the GI50 with SR is 32.6 µM (inactive); in the assay with LOX IMVI, 16.4 µM (inactive); with UACC-62, 14 µM (inactive); in the assay with NCI-H522, 19.7 µM (inactive); in the assay with MDA-N it was 22.8 µM (inactive); with 786-0, 36.6 µM (inactive). In addition, the GI50 in the assay with BT-549 is 29 µM (inactive); in the assay with SW-620, 32.9 µM (inactive).
For `CC1(C)OCC(C2OC(N3O[C@H](CI)C[C@@H]3c3ccccc3)C3OC(C)(C)OC23)O1` (stereo not given in full), the GI50 is > 100 µM (inactive) in the assay on RXF 393; > 100 µM (inactive) in the assay with HOP-92; 56.1 µM (inactive) in the assay on NCI-H460; > 100 µM (inactive) in the assay on SF-295; > 100 µM (inactive) in the assay with SN12C; > 100 µM (inactive) in the assay on HCC 2998. Moreover, the GI50 is > 100 µM (inactive) with Hs-578T; 34 µM (inactive) in the assay on PC-3; > 100 µM (inactive) in the assay on SK-OV-3; > 100 µM (inactive) in the assay on SK-MEL-28; 48.5 µM (inactive) with SR; > 100 µM (inactive) in the assay on LOX IMVI. The GI50 was > 100 µM (inactive) in the assay with UACC-62; > 100 µM (inactive) in the assay with NCI-H522; > 100 µM (inactive) in the assay on MDA-N; > 100 µM (inactive) with 786-0; 99.3 µM (inactive) in the assay with BT-549; > 100 µM (inactive) with SW-620.
For `COC(=O)C1=C(C)C(=O)[C@]23C(CCCC[C@H]12)C(=O)[C@H](C(=O)OC)C3C` (stereo not given in full), the GI50 in the assay with HOP-92, in the assay with NCI-H460, in the assay with NCI-H226, in the assay with SF-295, with SN12C and in the assay on HCC 2998 was > 100 µM (inactive) each time. Besides, the GI50 with Hs-578T is > 100 µM (inactive); with PC-3, > 100 µM (inactive); in the assay on OVCAR-8, > 100 µM (inactive); in the assay on SK-OV-3, > 100 µM (inactive); in the assay on SK-MEL-28 it was > 100 µM (inactive); in the assay on SR it was 50.9 µM (inactive). The GI50 with LOX IMVI, in the assay with UACC-62, with NCI-H522, in the assay on MDA-N, with 786-0 and in the assay with BT-549 was > 100 µM (inactive) throughout. For the same compound, the GI50 with SW-620 was > 100 µM (inactive).
In the case of `Cc1ncn(-c2ccccc2O)c1C`, the GI50 in the assay with RXF 393 was > 100 µM (inactive); in the assay on HOP-92 it was > 100 µM (inactive); in the assay on NCI-H226, > 100 µM (inactive); with SF-295, 55.5 µM (inactive); with SN12C it was > 100 µM (inactive); with Hs-578T, > 100 µM (inactive). The GI50 with PC-3, in the assay with OVCAR-8, with SK-OV-3, in the assay on SK-MEL-28, in the assay with SR and in the assay on LOX IMVI was > 100 µM (inactive) each time. For the same compound, the GI50 in the assay on UACC-62, in the assay on NCI-H522, with MDA-N, in the assay with 786-0, in the assay with BT-549 and with SW-620 was > 100 µM (inactive) each time.
Turning to `CC(=O)Oc1c(C)c2c(c3ncccc13)OC(C)C2` (stereo not given), the GI50 in the assay on RXF 393 was 14.8 µM (inactive); in the assay on HOP-92, 14.7 µM (inactive); in the assay with NCI-H460 it was 10.8 µM (inactive); in the assay with NCI-H226 it was 16.4 µM (inactive); in the assay on SF-295, 14.7 µM (inactive); with SN12C, 16.2 µM (inactive). Moreover, the GI50 is 12.8 µM (inactive) in the assay with HCC 2998; 22.2 µM (inactive) in the assay on Hs-578T; 26 µM (inactive) in the assay on PC-3; 14.5 µM (inactive) in the assay on OVCAR-8; 21 µM (inactive) with SK-OV-3; 13.9 µM (inactive) in the assay on SK-MEL-28. Besides, the GI50 in the assay on SR is 3.63 µM (inactive); in the assay with UACC-62, 12.2 µM (inactive); with NCI-H522 it was 4.29 µM (inactive); in the assay with MDA-N, 11 µM (inactive); in the assay with 786-0, 12.8 µM (inactive); in the assay with BT-549, 21.1 µM (inactive). The GI50 in the assay on SW-620 is 14.2 µM (inactive).
In the case of `CC1Oc2cc3c(-c4c(O)cc(O)c5c(O)c6c(cc45)OC(C)C(C)C6=O)c(O)cc(O)c3c(O)c2C(=O)C1C` (stereo not given), the GI50 in the assay on RXF 393 is 0.0173 µM (active); in the assay with HOP-92 it was 0.184 µM (active); in the assay with NCI-H460, 0.0259 µM (active); with NCI-H226, 0.0871 µM (active); with SF-295, 0.061 µM (active); in the assay with SN12C, 0.11 µM (active). Further, the GI50 was 0.281 µM (active) with HCC 2998; 0.0439 µM (active) in the assay with Hs-578T; 0.0546 µM (active) in the assay on PC-3; 0.0859 µM (active) in the assay on OVCAR-8; 0.363 µM (active) in the assay with SK-OV-3; 0.698 µM (active) in the assay on SK-MEL-28. Besides, the GI50 in the assay on SR was 0.054 µM (active); with UACC-62, 0.372 µM (active); with NCI-H522 it was 0.343 µM (active); in the assay with MDA-N, 0.359 µM (active); in the assay on 786-0 it was 0.102 µM (active); in the assay with BT-549, 0.0605 µM (active). Besides, the GI50 in the assay with SW-620 is 0.136 µM (active).
As to `C1CCNCC1.CN(C)c1ccc(/C=C2/NC(=S)NC2=O)cc1`, the GI50 was 37.6 µM (inactive) in the assay on RXF 393; 61.8 µM (inactive) in the assay with HOP-92; 41.1 µM (inactive) with NCI-H226; 40.5 µM (inactive) with SF-295; > 100 µM (inactive) with SN12C; 7.26 µM (inactive) in the assay with HCC 2998. For the same compound, the GI50 with Hs-578T was > 100 µM (inactive); in the assay on PC-3, 56.4 µM (inactive); in the assay on OVCAR-8, 97.9 µM (inactive); with SK-OV-3, 69.3 µM (inactive); in the assay with SK-MEL-28, 87.3 µM (inactive); with SR, 29.6 µM (inactive). Besides, the GI50 in the assay with LOX IMVI is 49 µM (inactive); with UACC-62 it was 36.8 µM (inactive); in the assay with NCI-H522 it was 65.2 µM (inactive); in the assay on MDA-N it was 36.3 µM (inactive); in the assay on 786-0, > 100 µM (inactive); in the assay on BT-549, 49.4 µM (inactive). Also, in the assay on SW-620, the GI50 is 37.8 µM (inactive).

Source of the values: ChEMBL document CHEMBL1201862, “PubChem BioAssay data set” (2004).
